According to patent publication EP2368885A1, “Derivatives of phenazine useful to treat cancer” (Université de la Méditerranée (Aix-Marseille II), priority 2010, dated 2011):

system: MiaPaCa-2 cells; test: not given; conditions: not given

Compound	Cytotoxicity (en %)
2,3-dihydroxy-7,8-diamino(Boc)phenazine [compound 13]	30 >X> 25
CCCCCCCCCCCCCCCC(=O)Oc1cc2nc3ccccc3nc2cc1OC(=O)CCCCCCCCCCCCCCC [compound 7, 2,3-diopalmitoylphenazine]	50 >X> 40
2,3-diethoxy-7-ethylcarboxyphenazine [compound 14]	20 > X > 10
2-hydroxy-3-ethoxy-7-ethylcarboxyphenazine [compound 5]	X>50%

system: MiaPaCa-2 cells; test: MTT colorimetric cytotoxicity assay on pancreatic chemoresistant cancer MiaPaCa-2 cells; conditions: 48 hours incubation, tested concentration not stated

Compound	Cytotoxicity (en %)
CCCCCCCCCCCCOc1cc2nc3ccc(C(=O)NCCN(C)C)cc3nc2cc1OCCCCCCCCCCCC [compound 4, 2,3-didodecanoxy-7-dimethylaminoethylcarbamoylphenazine]	X > 50%
CCCCCCCCCCCCOc1cc2nc3ccccc3nc2cc1OCCCCCCCCCCCC [compound 3, 2,3-didodecanoxyphenazine]	X>50%
CCCCCCCCCCCCOc1cc2nc3ccc(C(=O)O)cc3nc2cc1OCCCCCCCCCCCC [compound 1, 2,3-didodecanoxy-7-carboxyphenazine]	X>50%
CCCCCCCCCCCCOc1cc2nc3cc(N)c(N)cc3nc2cc1OCCCCCCCCCCCC [compound 2, 2,3-didodecanoxy-7,8-diaminophenazine]	X>50%
